These are literature values, as cited in publication PMC2714898 (European Journal of Clinical Pharmacology, 2009).

For `CCNCc1cc(Nc2ccnc3cc(Cl)ccc23)ccc1O` [Desethylamodiaquine (DEAQ), N-desethylamodiaquine], the half-life was 60 to 437 h.
Take `C[C@H]1[C@@H](O)O[C@@H]2O[C@@]3(C)CC[C@H]4[C@H](C)CC[C@@H]1[C@@]24OO3` [Dihydroartemisinin (DHA), dihydroartemisinin]: the “elimination half-life (t½)” value (averages, after oral AS) is 0.65 to 2.59 h.
